Results published in patent US20250230193A1, “CYCLIC COMPOUND HAVING SELECTIVE KRAS INHIBITORY EFFECT ON HRAS AND NRAS” (CHUGAI SEIYAKU KABUSHIKI KAISHA, priority 2022, published 2025).

What was measured:
[1] = target: GDP-bound NRAS wild-type protein (Homo sapiens, UniProt P01111); test: Binding to NRAS by surface plasmon resonance (SPR), Single Cycle Kinetics; conditions: KD ratio, GDP-bound NRAS wild-type vs GDP-bound KRAS wild-type, SPR
[2] = target: GDP-bound HRAS wild-type protein (Homo sapiens, UniProt P01112); test: Binding to HRAS by surface plasmon resonance (SPR), Single Cycle Kinetics; conditions: KD ratio, GDP-bound HRAS wild-type vs GDP-bound KRAS wild-type, SPR
Chain of GDP-bound HRAS wild-type protein (P01112 whole entry): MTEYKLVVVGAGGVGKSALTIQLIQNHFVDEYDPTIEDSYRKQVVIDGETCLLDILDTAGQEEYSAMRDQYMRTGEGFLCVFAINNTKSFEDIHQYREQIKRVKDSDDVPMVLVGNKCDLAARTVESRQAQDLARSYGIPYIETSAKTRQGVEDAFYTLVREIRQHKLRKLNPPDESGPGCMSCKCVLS

Chain of GDP-bound NRAS wild-type protein (P01111 whole entry): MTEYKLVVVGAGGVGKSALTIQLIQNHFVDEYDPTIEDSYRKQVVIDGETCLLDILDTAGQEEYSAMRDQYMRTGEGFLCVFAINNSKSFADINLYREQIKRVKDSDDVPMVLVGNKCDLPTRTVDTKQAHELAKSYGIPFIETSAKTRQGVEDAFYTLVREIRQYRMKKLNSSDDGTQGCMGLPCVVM

SMILES: CCCCO[C@@H]1C[C@H]2C(=O)NC3(CCC3)C(=O)N(C)[C@@H](C3CCCC3)C(=O)N(C)[C@H](C(=O)N3CCOCC3)CC(=O)N(C)[C@@H](CC(C)C)C(=O)N[C@@H]([C@@H](C)CC)C(=O)N(C)CC(=O)N(C)[C@H]3CCCCCN(C3=O)[C@@H](Cc3ccc(C(F)(F)F)cc3)C(=O)N(C)CC(=O)N[C@@H](CCc3cc(F)c(C(F)(F)F)c(F)c3)C(=O)N2C1 [PP1004]
- NRAS/KRAS (ratio of KD value with respect to NRAS to KD value with respect to KRAS) [1]: B (a compound having 3 or more and less than 10 is denoted as B)
- HRAS/KRAS (ratio of KD value with respect to HRAS to KD value with respect to KRAS) [2]: B (a compound having 3 or more and less than 10 is denoted as B)

SMILES: CC[C@H](C)[C@@H]1NC(=O)[C@H](CC(C)C)N(C)C(=O)C[C@@H](C(=O)N2CCOCC2)N(C)C(=O)[C@H](C2CCCC2)N(C)C(=O)C2(CCC2)NC(=O)[C@@H]2C[C@@H](OCC3CC3)CN2C(=O)[C@H](CCc2cc(F)c(C(F)(F)F)c(F)c2)NC(=O)CN(C)C(=O)[C@H](Cc2ccc(C(F)(F)F)cc2)N2CCCCC[C@@H](C2=O)N(C)C(=O)CN(C)C1=O [PP1005]
- NRAS/KRAS (ratio of KD value with respect to NRAS to KD value with respect to KRAS) [1]: A (a compound having 10 or more and less than 20 is denoted as A)
- HRAS/KRAS (ratio of KD value with respect to HRAS to KD value with respect to KRAS) [2]: A (a compound having 10 or more and less than 20 is denoted as A)

SMILES: CC[C@H](C)[C@@H]1NC(=O)[C@H](CC(C)C)N(C)C(=O)C[C@@H](C(=O)N2CCOCC2)N(C)C(=O)[C@H](C2CCCC2)N(C)C(=O)C2(CCC2)NC(=O)[C@@H]2C[C@@H](OCC(F)F)CN2C(=O)[C@H](CCc2cc(F)c(C(F)(F)F)c(F)c2)NC(=O)CN(C)C(=O)[C@H](Cc2ccc(C(F)(F)F)cc2)N2CCCCC[C@@H](C2=O)N(C)C(=O)CN(C)C1=O [PP1006]
- NRAS/KRAS (ratio of KD value with respect to NRAS to KD value with respect to KRAS) [1]: B (a compound having 3 or more and less than 10 is denoted as B)
- HRAS/KRAS (ratio of KD value with respect to HRAS to KD value with respect to KRAS) [2]: B (a compound having 3 or more and less than 10 is denoted as B)

SMILES: CCCCO[C@H]1CCN2C(=O)[C@H](CCc3cc(F)c(C(F)(F)F)c(F)c3)NC(=O)CN(C)C(=O)[C@H](Cc3ccc(C(F)(F)F)cc3)N3CCCCC[C@@H](C3=O)N(C)C(=O)CN(C)C(=O)[C@H]([C@@H](C)CC)NC(=O)[C@H](CC(C)C)N(C)C(=O)C[C@@H](C(=O)N3CCOCC3)N(C)C(=O)[C@H](C3CCCC3)N(C)C(=O)C3(CCC3)NC(=O)[C@H]12 [PP1009]
- NRAS/KRAS (ratio of KD value with respect to NRAS to KD value with respect to KRAS) [1]: B (a compound having 3 or more and less than 10 is denoted as B)
- HRAS/KRAS (ratio of KD value with respect to HRAS to KD value with respect to KRAS) [2]: B (a compound having 3 or more and less than 10 is denoted as B)

SMILES: CC[C@H](C)[C@@H]1NC(=O)[C@H](CC(C)C)N(C)C(=O)C[C@@H](C(=O)N2CCOCC2)N(C)C(=O)[C@H](C2CCCC2)N(C)C(=O)C2(CCC2)NC(=O)[C@@H]2[C@@H](OCC3CC3)CCN2C(=O)[C@H](CCc2cc(F)c(C(F)(F)F)c(F)c2)NC(=O)CN(C)C(=O)[C@H](Cc2ccc(C(F)(F)F)cc2)N2CCCCC[C@@H](C2=O)N(C)C(=O)CN(C)C1=O [PP1010]
- NRAS/KRAS (ratio of KD value with respect to NRAS to KD value with respect to KRAS) [1]: B (a compound having 3 or more and less than 10 is denoted as B)
- HRAS/KRAS (ratio of KD value with respect to HRAS to KD value with respect to KRAS) [2]: B (a compound having 3 or more and less than 10 is denoted as B)

SMILES: CC[C@H](C)[C@@H]1NC(=O)[C@H](CC(C)C)N(C)C(=O)C[C@@H](C(=O)N2CCOCC2)N(C)C(=O)[C@H](C2CCCC2)N(C)C(=O)C2(CCC2)NC(=O)[C@@H]2[C@@H](OCC3CCCC3)CCN2C(=O)[C@H](CCc2cc(F)c(C(F)(F)F)c(F)c2)NC(=O)CN(C)C(=O)[C@H](Cc2ccc(C(F)(F)F)cc2)N2CCCCC[C@@H](C2=O)N(C)C(=O)CN(C)C1=O [PP1011]
- NRAS/KRAS (ratio of KD value with respect to NRAS to KD value with respect to KRAS) [1]: A (a compound having 10 or more and less than 20 is denoted as A)
- HRAS/KRAS (ratio of KD value with respect to HRAS to KD value with respect to KRAS) [2]: B (a compound having 3 or more and less than 10 is denoted as B)

SMILES: CC[C@H](C)[C@@H]1NC(=O)[C@H](CC(C)C)N(C)C(=O)C[C@@H](C(=O)N2CCOCC2)N(C)C(=O)[C@H](C2CCCC2)N(C)C(=O)C2(CCC2)NC(=O)[C@@H]2[C@@H](OCC(F)F)CCN2C(=O)[C@H](CCc2cc(F)c(C(F)(F)F)c(F)c2)NC(=O)CN(C)C(=O)[C@H](Cc2ccc(C(F)(F)F)cc2)N2CCCCC[C@@H](C2=O)N(C)C(=O)CN(C)C1=O [PP1012]
- NRAS/KRAS (ratio of KD value with respect to NRAS to KD value with respect to KRAS) [1]: A (a compound having 10 or more and less than 20 is denoted as A)
- HRAS/KRAS (ratio of KD value with respect to HRAS to KD value with respect to KRAS) [2]: B (a compound having 3 or more and less than 10 is denoted as B)

SMILES: CCCCO[C@@H]1C[C@H]2C(=O)NC3(CCC3)C(=O)N(C)[C@@H](C3CCCC3)C(=O)N(C)[C@H](C(=O)N3CCOCC3)CC(=O)N(C)[C@@H](CC(C)C)C(=O)N[C@@H]([C@@H](C)CC)C(=O)N(C)CC(=O)N(C)[C@H]3CCCCN(C3=O)[C@@H](Cc3ccc(C(F)(F)F)cc3)C(=O)N(C)CC(=O)N[C@@H](CCc3cc(F)c(C(F)(F)F)c(F)c3)C(=O)N2C1 [PP1013]
- NRAS/KRAS (ratio of KD value with respect to NRAS to KD value with respect to KRAS) [1]: C (A compound having a KD ratio of 0.1 or more and less than 3 is denoted as C)
- HRAS/KRAS (ratio of KD value with respect to HRAS to KD value with respect to KRAS) [2]: C (A compound having a KD ratio of 0.1 or more and less than 3 is denoted as C)

SMILES: CC[C@H](C)[C@@H]1NC(=O)[C@H](CC(C)C)N(C)C(=O)C[C@@H](C(=O)N2CCOCC2)N(C)C(=O)[C@H](C2CCCC2)N(C)C(=O)C2(CCC2)NC(=O)[C@@H]2C[C@@H](OCC3CC3)CN2C(=O)[C@H](CCc2cc(F)c(C(F)(F)F)c(F)c2)NC(=O)CN(C)C(=O)[C@H](Cc2ccc(C(F)(F)F)cc2)N2CCCC[C@@H](C2=O)N(C)C(=O)CN(C)C1=O [PP1014]
- NRAS/KRAS (ratio of KD value with respect to NRAS to KD value with respect to KRAS) [1]: C (A compound having a KD ratio of 0.1 or more and less than 3 is denoted as C)
- HRAS/KRAS (ratio of KD value with respect to HRAS to KD value with respect to KRAS) [2]: C (A compound having a KD ratio of 0.1 or more and less than 3 is denoted as C)

SMILES: CC[C@H](C)[C@@H]1NC(=O)[C@H](CC(C)C)N(C)C(=O)C[C@@H](C(=O)N2CCOCC2)N(C)C(=O)[C@H](C2CCCC2)N(C)C(=O)C2(CCC2)NC(=O)[C@@H]2C[C@@H](OCC3CCCC3)CN2C(=O)[C@H](CCc2cc(F)c(C(F)(F)F)c(F)c2)NC(=O)CN(C)C(=O)[C@H](Cc2ccc(C(F)(F)F)cc2)N2CCCC[C@@H](C2=O)N(C)C(=O)CN(C)C1=O [PP1015]
- NRAS/KRAS (ratio of KD value with respect to NRAS to KD value with respect to KRAS) [1]: C (A compound having a KD ratio of 0.1 or more and less than 3 is denoted as C)
- HRAS/KRAS (ratio of KD value with respect to HRAS to KD value with respect to KRAS) [2]: C (A compound having a KD ratio of 0.1 or more and less than 3 is denoted as C)

SMILES: CC[C@H](C)[C@@H]1NC(=O)[C@H](CC(C)C)N(C)C(=O)C[C@@H](C(=O)N2CCOCC2)N(C)C(=O)[C@H](C2CCCC2)N(C)C(=O)C2(CCC2)NC(=O)[C@@H]2C[C@@H](OC)CN2C(=O)[C@H](CCc2cc(F)c(C(F)(F)F)c(F)c2)NC(=O)CN(C)C(=O)[C@H](Cc2ccc(C(F)(F)F)cc2)N2CCCCC[C@@H](C2=O)N(C)C(=O)CN(C)C1=O [PP1016]
- NRAS/KRAS (ratio of KD value with respect to NRAS to KD value with respect to KRAS) [1]: A (a compound having 10 or more and less than 20 is denoted as A)
- HRAS/KRAS (ratio of KD value with respect to HRAS to KD value with respect to KRAS) [2]: B (a compound having 3 or more and less than 10 is denoted as B)

SMILES: CCO[C@@H]1C[C@H]2C(=O)NC3(CCCC3)C(=O)N(C)[C@@H](C3CCCC3)C(=O)N(C)[C@H](C(=O)N(C)C)CC(=O)N(C)[C@@H](CC(C)C)C(=O)N[C@@H]([C@@H](C)CC)C(=O)N(C)CC(=O)N(C)[C@H]3C[C@@H](C)CCN(C3=O)[C@@H](Cc3ccc(C(F)(F)F)cc3)C(=O)N(C)CC(=O)N[C@@H](CCc3cc(F)c(C(F)(F)F)c(F)c3)C(=O)N2C1 [PP1017]
- NRAS/KRAS (ratio of KD value with respect to NRAS to KD value with respect to KRAS) [1]: C (A compound having a KD ratio of 0.1 or more and less than 3 is denoted as C)
- HRAS/KRAS (ratio of KD value with respect to HRAS to KD value with respect to KRAS) [2]: B (a compound having 3 or more and less than 10 is denoted as B)

SMILES: CCO[C@@H]1C[C@H]2C(=O)NC3(CCC3)C(=O)N(C)[C@@H](C3CCCC3)C(=O)N(C)[C@H](C(=O)N(C)C)CC(=O)N(C)[C@@H](CC(C)C)C(=O)N[C@@H]([C@@H](C)CC)C(=O)N(C)CC(=O)N(C)[C@H]3C[C@@H](C)CCN(C3=O)[C@@H](Cc3ccc(C(F)(F)F)cc3)C(=O)N(C)CC(=O)N[C@@H](CCc3cc(F)c(C(F)(F)F)c(F)c3)C(=O)N2C1 [PP1018]
- NRAS/KRAS (ratio of KD value with respect to NRAS to KD value with respect to KRAS) [1]: C (A compound having a KD ratio of 0.1 or more and less than 3 is denoted as C)
- HRAS/KRAS (ratio of KD value with respect to HRAS to KD value with respect to KRAS) [2]: B (a compound having 3 or more and less than 10 is denoted as B)

SMILES: CCO[C@@H]1C[C@H]2C(=O)NC3(CCC3)C(=O)N(C)[C@@H](C3CCCC3)C(=O)N(C)[C@H](C(=O)N(C)C)CC(=O)N(C)[C@@H](CC(C)C)C(=O)N[C@@H]([C@@H](C)CC)C(=O)N3CC[C@H]3C(=O)N(C)[C@H]3C[C@@H](C)CCN(C3=O)[C@@H](Cc3ccc(C(F)(F)F)cc3)C(=O)N(C)CC(=O)N[C@@H](CCc3cc(F)c(C(F)(F)F)c(F)c3)C(=O)N2C1 [PP1019]
- NRAS/KRAS (ratio of KD value with respect to NRAS to KD value with respect to KRAS) [1]: C (A compound having a KD ratio of 0.1 or more and less than 3 is denoted as C)
- HRAS/KRAS (ratio of KD value with respect to HRAS to KD value with respect to KRAS) [2]: B (a compound having 3 or more and less than 10 is denoted as B)

SMILES: CCO[C@@H]1C[C@H]2C(=O)NC3(CCC3)C(=O)N(C)[C@@H](C3CCCC3)C(=O)N(C)[C@H](C(=O)N(C)C)CC(=O)N(C)[C@@H](CC)C(=O)N[C@@H]([C@@H](C)CC)C(=O)N(C)CC(=O)N(C)[C@H]3C[C@@H](C)CCN(C3=O)[C@@H](Cc3ccc(C(F)(F)F)cc3)C(=O)N(C)CC(=O)N[C@@H](CCc3cc(F)c(C(F)(F)F)c(F)c3)C(=O)N2C1 [PP1020]
- NRAS/KRAS (ratio of KD value with respect to NRAS to KD value with respect to KRAS) [1]: C (A compound having a KD ratio of 0.1 or more and less than 3 is denoted as C)
- HRAS/KRAS (ratio of KD value with respect to HRAS to KD value with respect to KRAS) [2]: B (a compound having 3 or more and less than 10 is denoted as B)
